Laboratory results taken from PubChem BioAssay (NCI).
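Step 1: Grow cells in 96-well plates. Step 2: Expose to compound for 48 hours at 5 concentrations. Step 3: Interpolate endpoints linearly; if unreached, use highest concentration. TGI denotes the concentration required for complete inhibition of growth.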

Assays:
Assay in all cases: growth of human tumour cells (NCI), 48 h
786-0 renal = tested on: 786-0 renal
A498 renal = tested on: A498 renal
ACHN renal = tested on: ACHN renal
CAKI-1 renal = tested on: CAKI-1 renal
CCRF-CEM leukemia = tested on: CCRF-CEM leukemia
COLO 205 colon = tested on: COLO 205 colon
DLD-1 colon = tested on: DLD-1 colon
DMS 114 small cell lung = tested on: DMS 114 small cell lung
DMS 273 small cell lung = tested on: DMS 273 small cell lung
HCC-2998 colon = tested on: HCC-2998 colon
HCT-116 colon = tested on: HCT-116 colon
HCT-15 colon = tested on: HCT-15 colon
HL-60(TB) leukemia = tested on: HL-60(TB) leukemia
HOP-62 NSCLC = tested on: HOP-62 NSCLC
HOP-92 NSCLC = tested on: HOP-92 NSCLC
IGROV1 ovarian = tested on: IGROV1 ovarian
K-562 leukemia = tested on: K-562 leukemia
LXFL 529 NSCLC = tested on: LXFL 529 NSCLC
M14 melanoma = tested on: M14 melanoma
MALME-3M melanoma = tested on: MALME-3M melanoma
MOLT-4 leukemia = tested on: MOLT-4 leukemia
NCI-H226 lung = tested on: NCI-H226 lung
NCI-H23 lung = tested on: NCI-H23 lung
NCI-H522 lung = tested on: NCI-H522 lung
OVCAR-4 ovarian = tested on: OVCAR-4 ovarian
RPMI-8226 leukemia = tested on: RPMI-8226 leukemia
SF-268 CNS = tested on: SF-268 CNS
SF-539 CNS = tested on: SF-539 CNS
SK-MEL-2 melanoma = tested on: SK-MEL-2 melanoma
SK-MEL-28 melanoma = tested on: SK-MEL-28 melanoma
SK-OV-3 ovarian = tested on: SK-OV-3 ovarian
SN12C renal = tested on: SN12C renal
SNB-75 CNS = tested on: SNB-75 CNS
SR leukemia = tested on: SR leukemia
UACC-62 melanoma = tested on: UACC-62 melanoma
UO-31 renal = tested on: UO-31 renal
A549 NSCLC = tested on: A549 NSCLC
EKVX NSCLC = tested on: EKVX NSCLC
HOP-18 NSCLC = tested on: HOP-18 NSCLC
HT29 colon = tested on: HT29 colon
KM12 colon = tested on: KM12 colon
KM20L2 colon = tested on: KM20L2 colon
M19-MEL melanoma = tested on: M19-MEL melanoma
NCI-H460 lung = tested on: NCI-H460 lung
OVCAR-3 ovarian = tested on: OVCAR-3 ovarian
OVCAR-5 ovarian = tested on: OVCAR-5 ovarian
OVCAR-8 ovarian = tested on: OVCAR-8 ovarian
RXF 393 renal = tested on: RXF 393 renal
SF-295 CNS = tested on: SF-295 CNS
SK-MEL-5 melanoma = tested on: SK-MEL-5 melanoma
SNB-19 CNS = tested on: SNB-19 CNS
SNB-78 CNS = tested on: SNB-78 CNS
SW-620 colon = tested on: SW-620 colon
TK-10 renal = tested on: TK-10 renal
U251 CNS = tested on: U251 CNS
UACC-257 melanoma = tested on: UACC-257 melanoma

Work on `COc1cc([C@H]2Oc3cc(O)c4c(=O)cc(-c5ccccc5)oc4c3O[C@@H]2CO)ccc1O` yielded a TGI (786-0 renal) of 61.2 µM, a TGI (A498 renal) of 73.4 µM and a TGI (ACHN renal) of 63.8 µM. The TGI (CAKI-1 renal) was 79.1 µM, the TGI (CCRF-CEM leukemia) was greater than 100 µM and the TGI (COLO 205 colon) was greater than 100 µM. The TGI (DLD-1 colon) was greater than 100 µM, the TGI (DMS 114 small cell lung) was greater than 100 µM and the TGI (DMS 273 small cell lung) was greater than 100 µM. The TGI (HCC-2998 colon) was greater than 100 µM, the TGI (HCT-116 colon) was greater than 100 µM and the TGI (HCT-15 colon) was greater than 100 µM. For the same compound, the TGI (HL-60(TB) leukemia) was greater than 100 µM, the TGI (HOP-62 NSCLC) was greater than 100 µM and the TGI (HOP-92 NSCLC) was 58.1 µM. It also gave a TGI (IGROV1 ovarian) greater than 100 µM, a TGI (K-562 leukemia) greater than 100 µM and a TGI (LXFL 529 NSCLC) of 77 µM. For the same compound, the TGI (M14 melanoma) was greater than 100 µM, the TGI (MALME-3M melanoma) was 46.3 µM and the TGI (MOLT-4 leukemia) was greater than 100 µM. The TGI (NCI-H226 lung) was 80.1 µM, the TGI (NCI-H23 lung) was 69.2 µM and the TGI (NCI-H522 lung) was 72 µM. For the same compound, the TGI (OVCAR-4 ovarian) was 89.4 µM, the TGI (RPMI-8226 leukemia) was greater than 100 µM and the TGI (SF-268 CNS) was greater than 100 µM. It also gave a TGI (SF-539 CNS) of 56.6 µM, a TGI (SK-MEL-2 melanoma) greater than 100 µM and a TGI (SK-MEL-28 melanoma) greater than 100 µM. It also gave a TGI (SK-OV-3 ovarian) of 70.3 µM, a TGI (SN12C renal) greater than 100 µM and a TGI (SNB-75 CNS) of 39 µM. For the same compound, the TGI (SR leukemia) was greater than 100 µM, the TGI (UACC-62 melanoma) was greater than 100 µM and the TGI (UO-31 renal) was 58.6 µM.
`CC1=C(C(=O)Nc2ccccc2)C(c2ccccc2)C(C(=O)Nc2ccccc2)=C(C)N1` showed a TGI (786-0 renal) greater than 100 µM, a TGI (A498 renal) greater than 100 µM and a TGI (A549 NSCLC) greater than 100 µM. For the same compound, the TGI (ACHN renal) was greater than 100 µM, the TGI (CAKI-1 renal) was greater than 100 µM and the TGI (COLO 205 colon) was greater than 100 µM. The TGI (DLD-1 colon) was greater than 100 µM, the TGI (DMS 114 small cell lung) was greater than 100 µM and the TGI (DMS 273 small cell lung) was greater than 100 µM. It also gave a TGI (EKVX NSCLC) greater than 100 µM, a TGI (HCC-2998 colon) greater than 100 µM and a TGI (HCT-116 colon) greater than 100 µM. For the same compound, the TGI (HCT-15 colon) was greater than 100 µM, the TGI (HL-60(TB) leukemia) was greater than 100 µM and the TGI (HOP-18 NSCLC) was greater than 100 µM. For the same compound, the TGI (HOP-62 NSCLC) was greater than 100 µM, the TGI (HOP-92 NSCLC) was greater than 100 µM and the TGI (HT29 colon) was greater than 100 µM. For the same compound, the TGI (IGROV1 ovarian) was greater than 100 µM, the TGI (KM12 colon) was greater than 100 µM and the TGI (KM20L2 colon) was greater than 100 µM. It also gave a TGI (LXFL 529 NSCLC) greater than 100 µM, a TGI (M14 melanoma) greater than 100 µM and a TGI (M19-MEL melanoma) greater than 100 µM. It also gave a TGI (MALME-3M melanoma) greater than 100 µM, a TGI (MOLT-4 leukemia) greater than 100 µM and a TGI (NCI-H226 lung) greater than 100 µM. The TGI (NCI-H23 lung) was greater than 100 µM, the TGI (NCI-H460 lung) was greater than 100 µM and the TGI (NCI-H522 lung) was greater than 100 µM. For the same compound, the TGI (OVCAR-3 ovarian) was greater than 100 µM, the TGI (OVCAR-4 ovarian) was greater than 100 µM and the TGI (OVCAR-5 ovarian) was greater than 100 µM. For the same compound, the TGI (OVCAR-8 ovarian) was greater than 100 µM, the TGI (RXF 393 renal) was greater than 100 µM and the TGI (SF-268 CNS) was greater than 100 µM. It also gave a TGI (SF-295 CNS) greater than 100 µM, a TGI (SF-539 CNS) greater than 100 µM and a TGI (SK-MEL-2 melanoma) greater than 100 µM. The TGI (SK-MEL-28 melanoma) was greater than 100 µM, the TGI (SK-MEL-5 melanoma) was greater than 100 µM and the TGI (SK-OV-3 ovarian) was greater than 100 µM. The TGI (SN12C renal) was greater than 100 µM, the TGI (SNB-19 CNS) was greater than 100 µM and the TGI (SNB-75 CNS) was greater than 100 µM. It also gave a TGI (SNB-78 CNS) greater than 100 µM, a TGI (SW-620 colon) greater than 100 µM and a TGI (TK-10 renal) greater than 100 µM. It also gave a TGI (U251 CNS) greater than 100 µM, a TGI (UACC-257 melanoma) greater than 100 µM and a TGI (UACC-62 melanoma) greater than 100 µM. For the same compound, the TGI (UO-31 renal) was greater than 100 µM.
